# According to PubChem BioAssay AID651733 (The Scripps Research Institute Molecular Screening Center, 2012):
# Where “and” joins values, the source holds several entries; their conditions need not be identical. Identical values can stand only once. Calls of active or inactive are those of the source. No rule for the calls is given here.
# Molecular target: Perilipin-5 (Homo sapiens) + 1-acylglycerol-3-phosphate O-acyltransferase ABHD5 (Homo sapiens) (UniProt Q00G26+Q8WTS1)
# Assay: blockers of ABHD5 binding to perilipin-5 – cell lysate, luminescence, proteins expressed in HEK293T, dose response (AID 651733);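 also: split Gaussia princeps luciferase complementation between ABHD5 and MLDP fusion proteins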
# Details: ABHD5-PLIN5 interaction
# Perilipin-5 (Homo sapiens) + 1-acylglycerol-3-phosphate O-acyltransferase ABHD5 (Homo sapiens), sequence (Q00G26 whole entry, looked up, the tested form may be a part): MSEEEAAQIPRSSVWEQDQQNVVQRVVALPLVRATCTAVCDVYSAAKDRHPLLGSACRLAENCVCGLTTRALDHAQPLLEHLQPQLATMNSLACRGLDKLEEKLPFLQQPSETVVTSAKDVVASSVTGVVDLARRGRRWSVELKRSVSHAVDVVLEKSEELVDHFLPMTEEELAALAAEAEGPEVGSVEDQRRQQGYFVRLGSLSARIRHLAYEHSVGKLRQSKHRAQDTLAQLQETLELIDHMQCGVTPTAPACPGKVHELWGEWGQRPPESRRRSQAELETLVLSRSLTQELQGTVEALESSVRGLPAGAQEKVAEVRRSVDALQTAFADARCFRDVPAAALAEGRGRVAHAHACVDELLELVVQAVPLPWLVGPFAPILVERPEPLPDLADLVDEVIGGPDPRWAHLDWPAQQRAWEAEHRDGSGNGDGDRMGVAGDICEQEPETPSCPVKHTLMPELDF
# Perilipin-5 (Homo sapiens) + 1-acylglycerol-3-phosphate O-acyltransferase ABHD5 (Homo sapiens), sequence (Q8WTS1 whole entry, looked up, the tested form may be a part): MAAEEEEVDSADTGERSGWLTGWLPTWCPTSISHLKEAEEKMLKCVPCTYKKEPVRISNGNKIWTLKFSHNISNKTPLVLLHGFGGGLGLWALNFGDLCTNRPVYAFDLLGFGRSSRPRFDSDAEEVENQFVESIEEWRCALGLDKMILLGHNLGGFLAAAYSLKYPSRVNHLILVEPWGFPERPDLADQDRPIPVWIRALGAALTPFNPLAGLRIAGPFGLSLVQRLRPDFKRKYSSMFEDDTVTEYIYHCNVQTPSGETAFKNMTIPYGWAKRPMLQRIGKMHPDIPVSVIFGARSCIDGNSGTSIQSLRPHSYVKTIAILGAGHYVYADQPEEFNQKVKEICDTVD
row,SMILES,IC50
1,CCCCCNC(=O)C(c1ccccc1F)n1c(=O)c(-c2ccco2)nc2ccccc21 (configuration not stated),2.39 µM
2,O=[N+]([O-])/C=C/c1cn(Cc2ccc(F)cc2)c2ccccc12,7.06 µM
3,Cc1ccc(S(=O)(=O)N2C[C@H]3n4c(=O)ccc(=O)n4C[C@H](OC(=O)Nc4cccs4)[C@@]3(O)C2)cc1,8.68 µM
4,O=C(NC1CCCCC1)C(c1ccc(C(F)(F)F)cc1)n1c(=O)c(-c2ccco2)nc2ccccc21 (configuration not stated),3.81 µM
5,O=C(/C=C/Sc1ccccc1)c1ccc(Cl)cc1,4 µM
6,Cc1ccc(C(=O)c2c(C)oc3c2C(=O)C(=O)c2ccccc2-3)cc1,5.87 µM
7,Cc1ccc(SC2=C(Sc3ccc(C)cc3)C(=O)c3ccccc3C2=O)cc1,inactive
8,Oc1c(C(c2ccccc2)N2CCCCC2)ccc2ccccc12 (configuration not stated),1.73 µM
9,O=C(O)CC(O)(CC(=O)O)C(=O)O,3.54 µM
10,CCCCCNC(=O)C(c1cc2ccccc2o1)n1c(=O)c(-c2ccco2)nc2ccccc21 (configuration not stated),3.08 µM
11,CC(C)(C)NC(=O)C(c1ccc(-c2ccccc2)cc1)n1c(=O)c(-c2ccco2)nc2ccccc21 (configuration not stated),2.56 µM
12,CCOC(=O)C1C(OC(=O)c2ccccc2)CC2CCC1N2C (configuration not stated),5.69 µM
13,COc1ccccc1-c1cc(C(=O)NC2CCN(C)CC2)c2ccc(Cl)c(C)c2n1,inactive
14,O=C(NC1CCCCC1)C(C1CC1)n1c(=O)c(-c2ccco2)nc2ccccc21 (configuration not stated),5.09 µM
15,O=C(NCc1ccccc1)C(c1cccc2ccccc12)n1c(=O)c(-c2ccco2)nc2ccccc21 (configuration not stated),4.2 µM
16,CC(=O)Oc1c(Br)cc(N(C(C)=O)S(=O)(=O)c2ccccc2)c2ccccc12,inactive
17,CC(=O)C1=C(c2cccc([N+](=O)[O-])c2)N(C(C)=O)n2c(C)nnc2S1,4.3 µM
18,CSc1nnc(NC(=O)c2nc(S(=O)(=O)Cc3cccc(C)c3)ncc2Cl)s1,3.59 µM
19,Cc1ccc(CC2(OCCN(C)C)CCC(C(C)(C)C)CC2)cc1 (configuration not stated),4.85 µM
20,O=C(Nc1ccc(Cl)cc1)/C(=C/c1cccc(O)c1)c1nc2ccccc2s1,1.71 µM
21,Cc1oc2c(c1C(=O)c1ccc(Cl)cc1)C(=O)C(=O)c1ccccc1-2,4.38 µM
22,CCCNC(=O)Nc1ccc2c(c1)N(C)C(=O)c1ccccc1S2,4.21 µM
23,CCc1nnc(NC(=O)c2nc(S(=O)(=O)Cc3ccccc3)ncc2Cl)s1,5.18 µM
24,Oc1ccc2sc(-c3ccccc3O)c(-c3ccc(OCCN4CCCCC4)cc3)c2c1,inactive
25,COc1ccc(NC(=S)N(CCCN2CCCC2)Cc2cccn2Cc2ccc(Cl)cc2)cc1Cl,inactive

row,SMILES,IC50
1,O=C(NCc1ccccc1)C(c1ccccc1)n1c(=O)c(-c2ccco2)nc2ccccc21 (configuration not stated),4.77 µM
2,CCN(CC)CCN(CC(=O)Nc1c(C)cc(C)cc1C)C(=O)c1ccccc1,3.93 µM
3,COCCN(CCOC)c1nc(N)c2c(N)nc3c(c2c1C#N)CC(=O)N3Cc1ccc(Cl)cc1,inactive
4,COc1ccc(NC(=O)C(c2cccc3ccccc23)n2c(=O)c(-c3ccco3)nc3ccccc32)cc1 (configuration not stated),inactive
5,C#CCOCCOCCOCCNc1nc(N2CCN(C(=O)CCCCCCCCCCNC(=O)[C@@H](CCSC)n3cc(CCO)nn3)CC2)nc(N2CCN(C(=O)CCCCCCCCCCNC(=O)[C@@H]([C@H](C)O)n3cc(C)nn3)CC2)n1,inactive
6,CCN1C/C(=C/c2ccc(OC)c(O)c2)C(=O)/C(=C/c2ccc(OC)c(O)c2)C1,7.28 µM
7,CCOC(=O)c1c(NC(=O)/C=C/C(=O)O)sc(C)c1-c1ccc(C(C)(C)C)cc1,5.99 µM
8,C#CCN(C[C@@H]1[C@@H](OC(=O)Nc2cccs2)[C@@H](OC(=O)Nc2cccs2)Cn2c(=O)ccc(=O)n21)S(=O)(=O)c1ccc(C)cc1,3.06 µM
9,CC(=O)Nc1ccc(OCc2cn(CC(=O)c3ccc(O)cc3)nn2)cc1,3.76 µM
10,NC(=NCCCCCCN=C(N)/N=C(\N)Nc1ccc(Cl)cc1)/N=C(\N)Nc1ccc(Cl)cc1,6 µM and 4.02 µM
11,CN(C)CCN(Cc1ccco1)c1ccccn1,4.4 µM
12,O=C1/C(=C/c2cccnc2)CC/C1=C\c1cccnc1,4.26 µM
13,CCCCC(=O)NC(c1cccc([N+](=O)[O-])c1)c1ccc2cccnc2c1O (configuration not stated),inactive
14,O=C1NC(=S)NC(=O)C12C(c1ccccc1)NC(=S)NC2c1ccccc1 (configuration not stated),3.88 µM
15,COc1cc(OC)cc(C(=O)NC(=S)N(Cc2ccccc2)C(C)C)c1,inactive
16,Cc1cccc(C)c1NC(=O)C(c1ccnc2ccccc12)n1c(=O)c(-c2ccco2)nc2ccccc21 (configuration not stated),6.13 µM
17,CC(=O)OCC1=C(C(=O)O)N2C(=O)C(NC(=O)CCn3nc(C(F)(F)F)c(Br)c3C3CC3)C2SC1 (configuration not stated),inactive
18,COc1ccc(NC(=O)C(c2ccnc3ccccc23)n2c(=O)c(-c3ccco3)nc3ccccc32)cc1 (configuration not stated),7.88 µM
19,CCN(CC)CCOc1ccc(/C(=C(\Cl)c2ccccc2)c2ccccc2)cc1,2.39 µM
20,Cc1ccc(NC(=O)CSc2nnc(-c3ccco3)c(-c3ccco3)n2)cc1,4.82 µM
21,N#Cc1ccc(C(C(=O)Nc2ccc3c(c2)OCCO3)n2c(=O)c(-c3ccco3)nc3ccccc32)cc1 (configuration not stated),inactive
22,COc1ccc(/C=C\C(=O)CC(O)(c2ccccc2)C(F)(F)F)cc1 (configuration not stated),1.97 µM
23,O=C(NCc1ccccc1)C(c1cc2ccccc2o1)n1c(=O)c(-c2ccco2)nc2ccccc21 (configuration not stated),4.86 µM
24,O=C(Nc1ccc2c(c1)OCCO2)C(c1ccnc2ccccc12)n1c(=O)c(-c2ccco2)nc2ccccc21 (configuration not stated),inactive
25,CCSc1nnc(NC(=O)c2nc(S(=O)(=O)Cc3ccc(F)cc3)ncc2Cl)s1,3.78 µM

row,SMILES,IC50
1,Cc1cccc(C)c1NC(=O)C(c1ccc(C#N)cc1)n1c(=O)c(-c2ccco2)nc2ccccc21 (configuration not stated),3.4 µM
2,CSc1nnc(NC(=O)c2nc(S(=O)(=O)Cc3ccccc3F)ncc2Cl)s1,3.66 µM
3,COc1ccccc1C=CC(=O)C=Cc1ccccc1OC,6.63 µM
4,O=C(CF)N(O)c1ccc(C=Cc2ccccc2)cc1,> 39.9 µM (inactive)
5,O=C(/C(=C/c1ccccc1)n1cncn1)c1ccc(Cl)cc1Cl,2.13 µM
6,CCN1CCN(Cc2ccc(NC(=O)c3ccc(C)c(/C=C/c4cnc(Nc5cc(N6CCNCC6)nc(C)n5)cn4)c3)cc2C(F)(F)F)CC1,6.01 µM
7,Cc1ccc(S(=O)(=O)N2C[C@@]3(O)Cn4c(=O)ccc(=O)n4C[C@@]3(OC(=O)NCC3CCCCC3)C2)cc1,inactive
8,CCc1nnc(NC(=O)c2nc(S(=O)(=O)Cc3cccc(C)c3)ncc2Cl)s1,4.49 µM
9,COCCNC(=O)/C(C#N)=C/c1cccc(/C=C(\C#N)C(=O)NCCOC)c1,1.09 µM
10,COc1ccc(NC(=O)C(c2ccc(C#N)cc2)n2c(=O)c(-c3ccco3)nc3ccccc32)cc1 (configuration not stated),inactive
11,CC1=CC(C)(C)Nc2ccc(OC(=O)CN3C(=O)c4cccc5cccc(c45)C3=O)cc21,inactive
12,Cc1cc(C)c(C(CC(=O)c2cccs2)C(C#N)C#N)c(C)c1 (configuration not stated),8.57 µM
13,O=S(=O)(NC1=NCCCCC1)c1ccc2sc(NS(=O)(=O)c3ccc4ccccc4c3)nc2c1,inactive
14,CN(C)c1ccc(Cc2cc3c(O)ccc(O)c3cc(Cc3ccc(N(C)C)cc3)c2=O)cc1,4.13 µM
15,Cc1ccc(CS(=O)(=O)c2ncc(Cl)c(C(=O)Nc3nnc(C(C)C)s3)n2)cc1,2.88 µM
16,COC/C=C/C1=CC2=CC(=O)C(C)(OC(=O)C3CCCC3)C(=O)C2=CO1 (configuration not stated),3.88 µM
17,COc1ccc(NC(=O)c2cc3ccccc3cc2O)cc1,inactive
18,CN(C)CCCN(C(=O)CCc1ccccc1)c1nc2ccc(Cl)cc2s1,inactive
19,Cc1cccc(NC(=O)CSc2nnc(-c3ccco3)c(-c3ccco3)n2)c1,4.25 µM
20,COc1ccc(C(C(=O)NC(C)(C)C)n2c(=O)c(-c3ccco3)nc3ccccc32)cc1 (configuration not stated),3.52 µM
21,CC(C)(C)NC(=O)C(c1ccnc2ccccc12)n1c(=O)c(-c2ccco2)nc2ccccc21 (configuration not stated),8.16 µM
22,CCOC(=O)/C(=C\c1ccc(Cl)cc1)c1nc2sc(C)c(C)c2c(=O)[nH]1,0.862 µM
23,CCN(CC)CCNC(=O)c1ccc(NC(=O)c2cn(-c3ccccc3)nc2-c2cccs2)cc1,inactive
24,COc1cc(C(C)=O)ccc1OCc1cn(CC(=O)c2ccc(O)cc2)nn1,5.81 µM
25,C=C[C@]1(C)C[C@@H](OC(=O)CSCCN(CC)CC)[C@]2(C)C(C)CC[C@]3(CCC(=O)[C@H]32)[C@@H](C)[C@@H]1O (some centres not stated),4.62 µM

row,SMILES,IC50
1,Cc1cc(C)c(NC(=O)CN2CCN3CCCC3C2)c(C)c1 (configuration not stated),4.81 µM
2,CC(C)c1ccc(N2C=Nc3ccc(C(C)C)cc3C2)cc1,7.82 µM
3,Cc1ccc(O)c(C(=O)C=Cc2ccccc2)c1,2.61 µM
4,O=C1C(=O)c2c(C(=O)c3ccccc3)coc2-c2ccccc21,5.97 µM
5,O=C(NCc1ccccc1)C(c1ccc(-c2ccccc2)cc1)n1c(=O)c(-c2ccco2)nc2ccccc21 (configuration not stated),5.97 µM
6,CCCCCNC(=O)C(c1ccc(C#N)cc1)n1c(=O)c(-c2ccco2)nc2ccccc21 (configuration not stated),6.63 µM
7,CCC(C)NC(=O)Nc1ccc2c(c1)N(C)C(=O)c1ccccc1S2 (configuration not stated),3.6 µM
8,CN1C(=O)/C(=C/C=C/c2ccco2)C(=O)NC1=S,inactive
9,O=C(Nc1ccc2c(c1)OCCO2)C(c1ccccc1F)n1c(=O)c(-c2ccco2)nc2ccccc21 (configuration not stated),inactive
10,Cc1ccc(C(=O)/C=C/c2cc(Br)cc(Br)c2O)o1,inactive
11,CCCCCCC=C1CCC(CN2CCCC2)C1=O (configuration not stated),2.15 µM
12,CCCCCNC(=O)C(c1ccc(C(F)(F)F)cc1)n1c(=O)c(-c2ccco2)nc2ccccc21 (configuration not stated),3.44 µM
13,O=c1[nH]c(C2CCN(S(=O)(=O)c3ccc(F)cc3)CC2)nc2c1nnn2Cc1ccc2c(c1)OCCO2,8.33 µM
14,Cc1ccc2nc3cc([N+](=O)[O-])cc([N+](=O)[O-])c3cc2c1,1.09 µM
15,C#CCN(C[C@@H]1[C@@H](OC(=O)NCC2CCCCC2)[C@@H](OC(=O)NCC2CCCCC2)Cn2c(=O)ccc(=O)n21)S(=O)(=O)c1ccc(C)cc1,4.5 µM
16,CCCC(=O)NC(c1cccc([N+](=O)[O-])c1)c1ccc2cccnc2c1O (configuration not stated),inactive
17,CC1=CC(C)(C)Nc2ccc(OC(=O)CN3C(=O)CCC3=O)cc21,3.21 µM
18,CC(C)(C)NC(=O)C(c1ccccc1)n1c(=O)c(-c2ccco2)nc2ccccc21 (configuration not stated),3.62 µM
19,O=C(NC1CCCCC1)C(c1ccccc1F)n1c(=O)c(-c2ccco2)nc2ccccc21 (configuration not stated),4.15 µM
20,Cc1ccc(O)c(C(=O)/C=C/c2ccc3c(c2)OCCCO3)c1,4.93 µM
21,c1ccc(CCC2=NCCn3cccc32)cc1,8.18 µM
22,CCSc1ccc2c(c1)N(CCCN1CCN(C)CC1)c1ccccc1S2,5.95 µM
